The text below walks through data of article PMC9675574 (JCI Insight, 2022).

For data set [1], the system named is transmembrane serine protease 2. The following applies: cited from earlier work.
The next data set deals with trypsin. The note with it: cited from earlier work.
For data set [2], the system named is cerulein-induced pancreatitis in PRSS1^R122H mice. The following applies: cited from earlier work.
Data set [3] is described as follows: Estimation of absorbed dabigatran etexilate. Set-up: species or system mouse.
The conditions of data set [4]: humans; independent of dose, not influenced by food; cited from earlier work.
For data set [5], the system named is spontaneous pancreatitis in T7D23A mice. Nature of the data set: Spontaneous pancreatitis in T7D23A mice, oral gavage. The data set is classed as in vivo, mouse. The text has this:
(§1) The generation and properties of the T7D23A and T7K24R mice carrying trypsinogen mutations were described recently ([29], [30]). Heterozygous T7D23A and homozygous T7K24R mice were used. Protocols for genotyping have been reported earlier ([29], [30]). C57BL/6N mice were purchased from Charles River Laboratories or produced in our breeding facility from the same stock. Both male and female mice were studied.
(§2) Control mice were given gavage of the vehicle solution (Captisol; see below) or regular chow.
(§3) Captisol (β-cyclodextrin sulfobutyl ethers, sodium salts, lot number NC-04A-180185) was obtained from Cydex Pharmaceuticals (through Thermo Fisher Scientific) and was dissolved in sterile normal saline (3.5 g in 10 mL). […] The mixture was then compressed into pellets using the barrel of a 10 mL plastic syringe and a plunger. The prodrug-containing pellets were allowed to dry at 24°C for 2 days and stored at 4°C until use.

Data set [6] shares this test system. Nature of the data set: Spontaneous pancreatitis in T7D23A mice, feeding with drug-containing chow. The format is in vivo, mouse.
Text: as §1, §2, §3

A further data set concerns T7D23A and T7K24R mice. Nature of the data set: Safety observations in treated mice. The format is in vivo, mouse.
Text: as §2

Data set [7] has as its system cerulein-induced pancreatitis in T7K24R mice. Nature of the data set: Cerulein-induced pancreatitis in T7K24R mice. The format is in vivo, mouse. The protocol:
Pancreatitis was induced in T7K24R mice with 8 hourly intraperitoneal injections of the secretagogue peptide cerulein used in a dose of 50 μg/kg. Cerulein (catalog number C9026, MilliporeSigma) was dissolved in sterile normal saline at 10 μg/mL concentration. Mice were sacrificed 1, 24, 48, 72, or 96 hours from the first cerulein injection, as indicated, and the pancreas and blood were harvested. Details of histological analysis and measurement of plasma amylase (4 μL assayed) were reported previously ([29]–[31]).
as §2, §3

[8] abbreviates: gavage 1 × 100, 2 × 100 or 1 × 200 mg/kg daily for 2 weeks.
Where [9] appears, read: single oral gavage 200 mg/kg 30 minutes after last cerulein injection, 96 hours.
[10] abbreviates: single oral gavage 200 mg/kg, 15 treated mice.

The structures appear in SMILES notation. Where “and” joins values, the source holds several entries; their conditions need not be identical. Equal values may be shown once. Read-outs that look alike come from different tables or passages of the source.

With `N=C(N)c1ccc2cc(OC(=O)c3ccc(N=C(N)N)cc3)ccc2c1` [nafamostat], in data set [1], the “inhibition of transmembrane serine protease 2” value was “strong inhibitors”.

For `COc1ccc(-n2nc(C(N)=O)c3c2C(=O)N(c2ccc(N4CCCCC4=O)cc2)CC3)cc1` [apixaban], in the data set with trypsin, the trypsin-inhibitory activity result is listed as “devoid of trypsin-inhibitory activity”. The figures for the therapeutic activity entry in data set [2] (100 mg/kg alone) and in data set [2] (apixaban 100 mg/kg combined with camostat 200 mg/kg) were “no therapeutic activity whatsoever” and “highly effective”, respectively.

In the case of `CCCCCCOC(=O)NC(=N)c1ccc(NCc2nc3cc(C(=O)N(CCC(=O)OCC)c4ccccn4)ccc3n2C)cc1` [dabigatran etexilate], in data set [3] (10 mg prodrug/g chow, about 4 g chow per 24 hours, estimated), the “daily dose of absorbed dabigatran etexilate” value is given as 2.6 mg. In data set [3] (100 mg/kg intragastric gavage, 20 g mouse, estimated from human bioavailability), the “systemically absorbed single dose” value is reported as 0.13 mg. For the same compound, the oral bioavailability entry in [4] is recorded as “around 6.5%”. Moreover, in data set [5] (setting [8]), the “intact acini per visual field, treated versus untreated” value was “no appreciable difference”; the pancreas weight result is listed as “did not improve”; the “plasma amylase levels relative to untreated T7D23A controls” value is given as “significantly lower”. Further, in data set [5] (gavage 1 × 100, 2 × 100 or 1 × 200 mg/kg daily for 2 weeks, 3 to 5 weeks of age), the body weight gain result was “unaffected by gavage treatment”. In addition, in [5] (intragastric gavage for 2 weeks), the “effect on spontaneous pancreatitis” value is “did not ameliorate”. Moreover, in data set [6] (chow with 10 mg/g for 1 week), the “effect on spontaneous pancreatitis” value is “did not prevent or improve” and the “intact acini, pancreatitis severity” value is “no effect”. The plasma amylase activities result in [6] (chow with 10 mg/g for 1 week, all 4 groups) is on record as “comparable”. For the same compound, the “pancreas weight, treated versus untreated” value in data set [6] (chow with 10 mg/g for 1 week, both strains (C57BL/6N and T7D23A)) is on record as “small increase”. Also, the body weight gain entry in data set [6] (chow with 10 mg/g, 21 to 28 days of age, C57BL/6N and T7D23A) is “gained weight similarly”. Moreover, the “effect on cerulein-induced pancreatitis” value in data set [2] (PRSS1^R122H transgenic mice) is recorded as “markedly improved”. In addition, the “bleeding, morbidity, mortality” value in the data set on T7D23A and T7K24R mice (gavage 100 or 200 mg/kg or chow 10 mg/g) is given as “no bleeding, morbidity, or mortality were observed”. For the same compound, the “hematoxylin-eosin sections of liver, intestine, and kidney” value in the data set with T7D23A and T7K24R mice (mice treated with dabigatran etexilate or vehicle) is reported as “no signs of organ damage”. In addition, in data set [7] (setting [9]), the “body weight, start versus end of experiment” value is given as “no change in body weight” and the “pancreas weight versus vehicle-treated mice with pancreatitis” value is “significantly higher”. For the same compound, in data set [7] (setting [10]), the “share of drug-treated mice with complete protective effect (histology)” value was ~50% and the “share of mice with significant yet incomplete effect (30%–50% normal histology)” value is given as “about 20%”. In addition, the “plasma amylase activity in a subset of treated mice (4 of 15)” value in [7] (single oral gavage 200 mg/kg, 4 days after induction) is reported as “more than 3 fold”. Moreover, the “proportion of intact acini versus vehicle-treated group” value in data set [7] (single oral gavage 200 mg/kg, histology at 96 hours) is given as “significantly higher”. Besides, the “intact acini on pancreas sections, individual mice with elevated plasma amylase” value in data set [7] (single oral gavage 200 mg/kg, the 4 mice with elevated amylase, 200 mg/kg) is 45% and 13% and 15% and 35%.

`CN(C)C(=O)COC(=O)Cc1ccc(OC(=O)c2ccc(NC(=N)N)cc2)cc1` [camostat]: the therapeutic activity entry in data set [2] (200 mg/kg alone) is reported as “only a partial effect”. Also, the “inhibition of transmembrane serine protease 2” value in data set [1] is “strong inhibitors”.
